{"source": "patent US10179107B2", "about": "“Tablet containing dehydroepiandrosterone (DHEA)” (PANTARHEI BIOSCIENCE B.V., priority 2011, dated 2019)", "experiment": "Daily oral administration of DHEA to female users of hormonal oral contraceptives", "type": "in vivo, human", "conditions": "daily oral dosage of around 50 mg", "excerpt": "DHEA can be administered by different routes. Unlike various other known androgens, DHEA is orally active. […] Apart from the ability of DHEA to restore and normalize androgen levels, important significant clinical benefits have been observed on several aspects of sexual function (arousability, responsivity, genital sensation, lubrication), mood and menstrual distress symptoms."}
{"smiles": "C[C@]12CC[C@H](O)CC1=CC[C@@H]1[C@@H]2CC[C@]2(C)C(=O)CC[C@@H]12", "note": "[DHEA, 3-beta-hydroxyandrost-5-en-17-one]", "values": [{"measurement": "estradiol levels", "value": "without increasing estradiol levels"}, {"measurement": "excessively high testosterone levels or clinical symptoms of hyperandrogenicity", "value": "without causing excessively high testosterone levels or clinical symptoms of hyperandrogenicity"}, {"measurement": "normalization of free testosterone", "value": "at least 50%"}, {"measurement": "normalization of total testosterone", "value": "normalizes total testosterone completely"}]}
